Data reported in patent US10123984B2, “Neprilysin inhibitors” (THERAVANCE BIOPHARMA R&D IP, LLC, priority 2011, dated 2018).

Biological target: T1, NEP (Homo sapiens (Human), UniProt P08473)
Assay: Assay 1: in vitro enzyme inhibition assay at human NEP (fluorogenic peptide substrate)
Type: biochemical
Conditions: pKi values at human NEP, comparative examples, exact values
Protocol: The assays were performed in 384-well white opaque plates at 37° C. using the fluorogenic peptide substrates at a concentration of 10 μM in Assay Buffer (NEP: 50 mM HEPES, pH 7.5, 100 mM NaCl, 0.01% polyethylene glycol sorbitan monolaurate (Tween-20), 10 μM ZnSO4; ACE: 50 mM HEPES, pH 7.5, 100 mM NaCl, 0.01% Tween-20, 1 μM ZnSO4).
Test compounds were assayed over the range of concentrations from 10 μM to 20 pM. Test compounds were added to the enzymes and incubated for 30 minute at 37° C. prior to initiating the reaction by the addition of substrate. Reactions were terminated after 20 minutes of incubation at 37° C. by the addition of glacial acetic acid to a final concentration of 3.6% (v/v).
Inhibition constants were obtained by nonlinear regression of the data using the equation (GraphPad Software, Inc., San Diego, Calif.): v=v0/[1+(I/K′)] where v is the reaction rate, v0 is the uninhibited reaction rate, I is the inhibitor concentration and K′ is the apparent inhibition constant.

Molecule | Ki [nM]
O=C(O)CC(=O)N[C@H](Cc1ccc(-c2cccc(Cl)c2)cc1)C[C@@H](O)C(=O)O [Comparative Compound I, (2R,4R)-4-(2-Carboxy-acetylamino)-5-(3′-chloro-biphenyl-4-yl)-2-hydroxy-pentanoic Acid] | 3.98
O=C(O)C(=O)N[C@H](Cc1ccc(-c2cccc(Cl)c2)cc1)C[C@@H](O)C(=O)O [Example 2A, (2R,4R)-5-(3′-Chlorobiphenyl-4-yl)-2-hydroxy-4-(oxalylamino)pentanoic Acid] | 0.2
O=C(O)CCC(=O)N[C@H](Cc1ccc(-c2ccccc2)cc1)CC(O)C(=O)O (stereo partly drawn) [Comparative Compound D, (R)-5-Biphenyl-4-yl-4-(3-carboxypropionylamino)-2-hydroxypentanoic Acid] | 39.8
O=C(O)CC(=O)N[C@H](Cc1ccc(-c2ccccc2)cc1)C[C@@H](CO)C(=O)O [Comparative Compound F, (2S,4S)-5-Biphenyl-4-yl-4-(2-carboxy-acetylamino)-2-hydroxymethylpentanoic Acid] | 6.31
O=C(O)CCC(=O)N[C@H](Cc1ccc(-c2cccc(Cl)c2)cc1)C[C@@H](O)C(=O)O [Comparative Compound J, (2R,4R)-4-(3-Carboxy-propionylamino)-5-(3′-chloro-biphenyl-4-yl)-2-hydroxy-pentanoic Acid] | 0.316
O=C(O)CCCC(=O)N[C@H](Cc1ccc(-c2ccccc2)cc1)C[C@@H](CO)C(=O)O [Comparative Compound H, (2S,4S)-5-Biphenyl-4-yl-4-(4-carboxy-butyrylamino)-2-hydroxymethylpentanoic Acid] | 2.51
O=C(O)CCCC(=O)N[C@H](Cc1ccc(-c2cccc(Cl)c2)cc1)C[C@@H](O)C(=O)O [Comparative Compound K, (2R,4R)-4-(4-Carboxy-butyrylamino)-5-(3′-chloro-biphenyl-4-yl)-2-hydroxy-pentanoic Acid] | 0.501
O=C(O)C(=O)N[C@H](Cc1ccc(-c2ccccc2)cc1)CC(O)C(=O)O (stereo partly drawn) [Example 1, (R)-5-Biphenyl-4-yl-2-hydroxy-4-(oxalylamino)pentanoic Acid] | 12.6
O=C(O)CC(=O)N[C@H](Cc1ccc(-c2ccccc2)cc1)CC(O)C(=O)O (stereo partly drawn) [Comparative Compound C, (R)-5-Biphenyl-4-yl-4-(2-carboxyacetylamino)-2-hydroxypentanoic Acid] | 200
O=C(O)CCC(=O)N[C@H](Cc1ccc(-c2ccccc2)cc1)C[C@@H](CO)C(=O)O [Comparative Compound G, (2S,4S)-5-Biphenyl-4-yl-4-(3-carboxy-propionylamino)-2-hydroxymethylpentanoic Acid] | 1
O=C(O)CCCC(=O)N[C@H](Cc1ccc(-c2ccccc2)cc1)CC(O)C(=O)O (stereo partly drawn) [Comparative Compound E, (R)-5-Biphenyl-4-yl-4-(4-carboxybutyrylamino)-2-hydroxypentanoic Acid] | 50.1

Same assay, conditions: pKi values at human NEP, reported as ranges

Molecule | pKi | Ki [nM]
(2R,4R)-5-(3,3′-Dichlorobiphenyl-4-yl)-2-hydroxy-4-(oxalylamino)pentanoic acid ethyl ester [Example 5-17] | ≥9 | 
CC(C)COC(=O)C(=O)NN(Cc1ccc(-c2cc(Cl)ccc2F)cc1)C[C@@H](O)C(=O)O [Example 14C, (R)-3-[N-(5′-Chloro-2′-fluorobiphenyl-4-ylmethyl)-N′-isobutoxyoxalylhydrazino]-2-hydroxypropionic Acid] |  | 1.26 to 10
O=C(N[C@H](Cc1ccc(-c2cccc(Cl)c2)cc1)C[C@@H](O)C(=O)O)C(=O)OCCC(F)(F)F [Example 2N, (2R,4R)-5-(3′-Chlorobiphenyl-4-yl)-2-hydroxy-4-[(3,3,3-trifluoropropoxyoxalyl)-amino]pentanoic Acid] | ≥9 | 
O=C(O)C(=O)NN(Cc1ccc(-c2cc(Cl)ccc2F)cc1)C[C@@H](O)C(=O)O [Example 14A, (R)-3-[N-(5′-Chloro-T-fluorobiphenyl-4-ylmethyl)-N-oxalylhydrazino]-2-hydroxypropionic Acid] |  | ≤ 1
CC(C)COC(=O)C(=O)N[C@H](Cc1ccc(-c2cc(Cl)ccc2Cl)cc1)C[C@@H](O)C(=O)O [Example 3D, (2R,4R)-5-(2′,5′-Dichlorobiphenyl-4-yl)-2-hydroxy-4-(isobutoxyoxalylamino)-pentanoic Acid] |  | ≤ 1
(R)-3-N-(3,5′-Dichloro-2′-fluorobiphenyl-4-ylmethyl)-N′-oxalyl-hydrazinol-2-hydroxypropionic acid [Example 5-13] | ≥9 | 
O=C(O)C(=O)N[C@H](Cc1ccc(-c2ccccc2F)cc1)C[C@@H](CO)C(=O)O [Example 7B, (2S,4S)-5-(2′-Fluorobiphenyl-4-yl)-2-hydroxymethyl-4-(oxalylamino)pentanoic Acid] |  | ≤ 1

Biological target: T1, NEP
Assay: not given
Conditions: relative to 21a (succinic acid substituent); quoted from Ksander et al.; cited from earlier work

Molecule | decrease in activity [fold]
C[C@H](C[C@@H](Cc1ccc(-c2ccccc2)cc1)NC(=O)CCCCC(=O)O)C(=O)O [Example 21f] | 65
C[C@H](C[C@@H](Cc1ccc(-c2ccccc2)cc1)NC(=O)CCCC(=O)O)C(=O)O [Example 21e] | 18
C[C@H](CC(Cc1ccc(-c2ccccc2)cc1)NC(=O)CC(=O)O)C(=O)O (stereo partly drawn) [Example 21g] | 18
